Laboratory results as given in ChEMBL document CHEMBL5143732 (J Med Chem, 2022).
In brackets after ≈: the same amount, converted by molar mass. Activity calls are given as the source filed them. The calls are words filed in the database; no cut-off is given here.

How the values were obtained:
[1] = Observed AUC infinity in ICR (CD-1) mouse at 1 mg/kg, iv measured upto 24 hrs; type: ADME, organism-based; design: dose 1 mg/kg, time < 24 hrs, route iv; conditions: in vivo; for AUC(0-inf): ICR (CD-1)
Candida albicans [2] = assay: Antifungal activity against Candida albicans ATTCC 14053 infected in SPF Kunming mouse assessed as increase in mouse survival pre-infected for 1 hr followed by compound addition and measured after 7 to 14 days; type: functional; conditions: time 7-14 day
[3] = AUClast in ICR (CD-1) mouse at 1 mg/kg, iv measured upto 24 hrs; type: ADME, organism-based; design: dose 1 mg/kg, time < 24 hrs, route iv; conditions: in vivo; for AUC(0-t) at 24 h: ICR (CD-1)
[4] = Observed volume of distribution at steady state in ICR (CD-1) mouse at 1 mg/kg, iv measured upto 24 hrs; type: ADME, organism-based; conditions: in vivo, read-out: Vdss
[5] = Observed clearance in ICR (CD-1) mouse at 1 mg/kg, iv measured upto 24 hrs; type: ADME, organism-based; design: dose 1 mg/kg, time < 24 hrs, route iv; conditions: in vivo
[6] = Therapeutic index ratio of MTD for acute toxicity in iv dosed SPF ICR mouse to ED50 for antifungal activity against Candida albicans ATTCC 14053 infected in SPF kunming mouse; type: organism-based; conditions: in vivo, read-out: TI
[7] = Observed MRT infinity in ICR (CD-1) mouse at 1 mg/kg, iv measured upto 24 hrs; type: ADME, organism-based; conditions: in vivo
[8] = Acute toxicity in iv dosed SPF ICR mouse assessed as maximum tolerated measured for 14 days; type: organism-based; conditions: in vivo, dose 30 mg/kg, time 14 day
[9] = Elimination half life in ICR (CD-1) mouse at 1 mg/kg, iv measured upto 24 hrs; type: ADME, organism-based; conditions: in vivo, read-out: beta t1/2 (converted)
Candida parapsilosis [10] = assay: Antifungal activity against Candida parapsilosis assessed as inhibition of fungal growth measured after 48 hrs by CLSI based agar dilution method; type: functional; conditions: Lodderomyces parapsilosis
Pichia kudriavzevii [11] = assay: Antifungal activity against Candida krusei ATCC 6258 assessed as inhibition of fungal growth measured after 48 hrs by CLSI based agar dilution method; type: functional
Candida tropicalis [12] = assay: Antifungal activity against Candida tropicalis assessed as inhibition of fungal growth measured after 48 hrs by CLSI based agar dilution method; type: functional
[13] = Hemolytic activity in human RBC measured after 1 hr; type: toxicity, cell-based, Erythrocyte; conditions: red blood cells (erythrocytes)
Pichia kudriavzevii [14] = assay: Antifungal activity against Candida krusei assessed as inhibition of fungal growth measured after 48 hrs by CLSI based agar dilution method; type: functional
Cryptococcus neoformans [15] = assay: Antifungal activity against Cryptococcus neoformans ATCC 32609 assessed as inhibition of fungal growth measured after 48 hrs by CLSI based agar dilution method; type: functional
Candida albicans [16] = assay: Antifungal activity against Candida albicans assessed as inhibition of fungal growth measured after 48 hrs by CLSI based agar dilution method; type: functional
Lipid bilayer [17] = assay: Induction of membrane disruption in inner membrane mimic POPC/ergosterol (10:1) large unilamellar vesicles assessed as change in liposomal integrity by transmission electron microscopic analysis; type: cell membranes
Lipid bilayer [18] = assay: Induction of membrane disruption in inner membrane mimic POPC/ergosterol (10:1) large unilamellar vesicles assessed as change in morphology by transmission electron microscopic analysis; type: cell membranes
Cryptococcus neoformans [19] = assay: Potency index, ratio of AMD MIC to test compound MIC for antifungal activity against Cryptococcus neoformans; type: functional
Candida albicans [20] = assay: Potency index, ratio of AMD MIC to test compound MIC for antifungal activity against Candida albicans; type: functional
[21] = Aqueous solubility of compound at pH 6.8; type: physicochemical; conditions: buffer
[22] = Acute toxicity in SPF ICR mouse assessed as prostration upto 7.5 mg/kg, iv administered on day 1 and measured for 14 days; type: organism-based; conditions: in vivo, 336 h, time 14 day
Pichia kudriavzevii [23] = assay: Potency index, ratio of AMD MIC to test compound MIC for antifungal activity against Candida krusei; type: functional
Candida tropicalis [24] = assay: Potency index, ratio of AMD MIC to test compound MIC for antifungal activity against Candida tropicalis; type: functional
[25] = Acute toxicity in SPF ICR mouse assessed as prostration at 15 to 30 mg/kg, iv administered on day 1 and measured for 14 days; type: organism-based; conditions: in vivo, 336 h, dose 15-30 mg/kg, time 14 day
Candida parapsilosis [26] = assay: Potency index, ratio of AMD MIC to test compound MIC for antifungal activity against Candida parapsilosis; type: functional
Nakaseomyces glabratus = assay: Potency index, ratio of AMD MIC to test compound MIC for antifungal activity against Candida glabrata; type: functional
[27] = Acute toxicity in SPF ICR mouse assessed as polypnea upto 7.5 mg/kg, iv administered on day 1 and measured for 14 days; type: organism-based; conditions: in vivo, 336 h, time 14 day
[28] = Acute toxicity in SPF ICR mouse assessed as polypnea at 15 to 30 mg/kg, iv administered on day 1 and measured for 14 days; type: organism-based; conditions: in vivo, 336 h, dose 15-30 mg/kg, time 14 day
[29] = route iv, dose 1 mg/kg, time < 24 hrs, read-out: CL

Row | SMILES | AUC(0-inf) [1] [ng·h/mL] | ED50 (Candida albicans [2]) [mg/kg] | AUC(0-t) at 24 h [3] [ng·h/mL] | Vd [4] [L/kg] | clearance [5, 29] [mL/min/kg] | MRT inf [7] [h] | MTD at 336 h [8] [mg/kg] | half-life [9] [h] | MIC (Candida parapsilosis [10]) [µg/mL] | MIC (Pichia kudriavzevii [11]) [µg/mL] | MIC (Candida tropicalis [12]) [µg/mL] | HC50 at 1 h [13] [µM] | MIC (Pichia kudriavzevii [14]) [µg/mL] | MIC (Cryptococcus neoformans [15]) [µg/mL] | MIC (Candida albicans [16]) [µg/mL] | also measured
1 | C[C@@H]1[C@H](O)[C@@H](C)/C=C/C=C/C=C/C=C/C=C/C=C/C=C/[C@H](O[C@@H]2O[C@H](C)[C@@H](O)[C@H](N)[C@@H]2O)C[C@@H]2O[C@](O)(C[C@@H](O)C[C@@H](O)[C@H](O)CC[C@@H](O)C[C@@H](O)CC(=O)O[C@H]1C)C[C@H](O)[C@H]2C(=O)NCCN | 18900 | 0.32 | 11600 | 1.33 | 0.896 | 25.3 | 7.5 | 17.5 |  |  |  |  |  |  |  | selectivity ratio [6]: 23.4
2 | C[C@@H]1[C@H](O)[C@@H](C)/C=C/C=C/C=C/C=C/C=C/C=C/C=C/[C@H](O[C@@H]2O[C@H](C)[C@@H](O)[C@H](NC(=O)CN)[C@@H]2O)C[C@@H]2O[C@](O)(C[C@@H](O)C[C@@H](O)[C@H](O)CC[C@@H](O)C[C@@H](O)CC(=O)O[C@H]1C)C[C@H](O)[C@H]2C(=O)N1CCN(CCO)CC1 | 3440 |  | 3060 | 3.06 | 4.85 | 10.5 |  | 7.72 | 0.5 (≈ 0.457 µM) | 8 (≈ 7.32 µM) | 0.25 (≈ 0.229 µM) | 30.6 | 0.25 (≈ 0.229 µM) | 0.25 (≈ 0.229 µM) | 0.25 (≈ 0.229 µM) | 
3 | CNCC(=O)N[C@@H]1[C@H](O)[C@H](O[C@H]2/C=C/C=C/C=C/C=C/C=C/C=C/C=C/[C@H](C)[C@@H](O)[C@@H](C)[C@H](C)OC(=O)C[C@H](O)C[C@H](O)CC[C@@H](O)[C@H](O)C[C@H](O)C[C@]3(O)C[C@H](O)[C@@H](C(=O)NCCN)[C@H](C2)O3)O[C@H](C)[C@H]1O [listing 1 of 2 here] |  |  |  |  |  |  |  |  |  |  |  |  |  |  |  | Activity (Lipid bilayer [17]): Active; Activity (Lipid bilayer [18]): Active
4 | C[C@@H]1[C@H](O)[C@@H](C)/C=C/C=C/C=C/C=C/C=C/C=C/C=C/[C@H](O[C@@H]2O[C@H](C)[C@@H](O)[C@H](NC(=O)CCN)[C@@H]2O)C[C@@H]2O[C@](O)(C[C@@H](O)C[C@@H](O)[C@H](O)CC[C@@H](O)C[C@@H](O)CC(=O)O[C@H]1C)C[C@H](O)[C@H]2C(=O)N1CCN(CCO)CC1 | 6210 |  | 4890 | 2.48 | 2.7 | 15.3 |  | 11.2 | 0.5 (≈ 0.452 µM) | 8 (≈ 7.22 µM) | 1 (≈ 0.903 µM) | 24.4 | 0.5 (≈ 0.452 µM) | 0.25 (≈ 0.226 µM) | 0.5 (≈ 0.452 µM) | 
5 | CNCC(=O)N[C@@H]1[C@H](O)[C@H](O[C@H]2/C=C/C=C/C=C/C=C/C=C/C=C/C=C/[C@H](C)[C@@H](O)[C@@H](C)[C@H](C)OC(=O)C[C@H](O)C[C@H](O)CC[C@@H](O)[C@H](O)C[C@H](O)C[C@]3(O)C[C@H](O)[C@@H](C(=O)N4CCN(C(C)(C)CO)CC4)[C@H](C2)O3)O[C@H](C)[C@H]1O | 17700 |  | 10700 | 1.44 | 0.95 | 25.4 |  | 16.4 | 1 (≈ 0.881 µM) | 4 (≈ 3.52 µM) | 1 (≈ 0.881 µM) | 50.7 | 1 (≈ 0.881 µM) | 1 (≈ 0.881 µM) | 1 (≈ 0.881 µM) | 
6 | C[C@@H]1[C@H](O)[C@@H](C)/C=C/C=C/C=C/C=C/C=C/C=C/C=C/[C@H](O[C@@H]2O[C@H](C)[C@@H](O)[C@H](N)[C@@H]2O)C[C@@H]2O[C@](O)(C[C@@H](O)C[C@@H](O)[C@H](O)CC[C@@H](O)C[C@@H](O)CC(=O)O[C@H]1C)C[C@H](O)[C@H]2C(=O)O [AMPHOTERICIN B] |  | 1.08 |  | 6.42 |  | 28.8 | 2.01 | 19.2 | 0.25 (≈ 0.271 µM) |  | 1 (≈ 1.08 µM) | 4.13 |  |  | 0.5 (≈ 0.541 µM) | AUC ([1]; 24 h): 4476 ng·h/mL; AUClast ([3]; 24 h): 2488 ng·h/mL; clearance ([5]; iv, 1 mg/kg, read-out: AUC): 4.02 mL/min/kg
7 | CNCC(=O)N[C@@H]1[C@H](O)[C@H](O[C@H]2/C=C/C=C/C=C/C=C/C=C/C=C/C=C/[C@H](C)[C@@H](O)[C@@H](C)[C@H](C)OC(=O)C[C@H](O)C[C@H](O)CC[C@@H](O)[C@H](O)C[C@H](O)C[C@]3(O)C[C@H](O)[C@@H](C(=O)NCCN)[C@H](C2)O3)O[C@H](C)[C@H]1O [listing 2 of 2 here] | 31800 | 0.21 | 17600 | 0.917 | 0.53 | 29.5 | 7.5 | 20.5 | 0.03 (≈ 0.0289 µM) | 0.125 (≈ 0.121 µM) | 0.03 (≈ 0.0289 µM) | 105 | 0.25 (≈ 0.241 µM) | < 0.008 | < 0.008 | Ratio (Cryptococcus neoformans [19]): 125; Ratio (Candida albicans [20]): 60; solubility [21]: 58.5 µg/mL (≈ 56.4 µM); Activity [22]: Non-Toxic; Ratio (Pichia kudriavzevii [23]): 8; Ratio (Candida tropicalis [24]): 33; Activity [25]: Toxic; selectivity ratio [6]: 35.7; Ratio (Candida parapsilosis [26]): 16; Ratio (Nakaseomyces glabratus): 66; Activity [27]: Non-Toxic; Activity [28]: Toxic
8 | C[C@@H]1[C@H](O)[C@@H](C)/C=C/C=C/C=C/C=C/C=C/C=C/C=C/[C@H](O[C@@H]2O[C@H](C)[C@@H](O)[C@H](NC(=O)CN)[C@@H]2O)C[C@@H]2O[C@](O)(C[C@@H](O)C[C@@H](O)[C@H](O)CC[C@@H](O)C[C@@H](O)CC(=O)O[C@H]1C)C[C@H](O)[C@H]2C(=O)NCCN | 18300 |  | 11500 | 1.37 | 0.913 | 24.9 |  | 18.2 | 0.015 (≈ 0.0147 µM) | 0.5 (≈ 0.489 µM) | 0.03 (≈ 0.0293 µM) | 18.2 | 0.06 (≈ 0.0586 µM) | < 0.008 | < 0.008 | 
